According to patent US20050143450A1, “Alkyl PCDF as a treatment for prostate cancer” (priority 2002, published 2005):

Experiments:
[1] = biological target: T1, hAR (Homo sapiens, UniProt P10275); assay: Hormone-induced transactivation in ZR-75 cells cotransfected with pPB and hAR; assay type: cell-based; details: cotreated with hormone plus TCDD
T1 construct: expressed in transfected cells; host or cells: ZR-75
T1 sequence (P10275 1-920): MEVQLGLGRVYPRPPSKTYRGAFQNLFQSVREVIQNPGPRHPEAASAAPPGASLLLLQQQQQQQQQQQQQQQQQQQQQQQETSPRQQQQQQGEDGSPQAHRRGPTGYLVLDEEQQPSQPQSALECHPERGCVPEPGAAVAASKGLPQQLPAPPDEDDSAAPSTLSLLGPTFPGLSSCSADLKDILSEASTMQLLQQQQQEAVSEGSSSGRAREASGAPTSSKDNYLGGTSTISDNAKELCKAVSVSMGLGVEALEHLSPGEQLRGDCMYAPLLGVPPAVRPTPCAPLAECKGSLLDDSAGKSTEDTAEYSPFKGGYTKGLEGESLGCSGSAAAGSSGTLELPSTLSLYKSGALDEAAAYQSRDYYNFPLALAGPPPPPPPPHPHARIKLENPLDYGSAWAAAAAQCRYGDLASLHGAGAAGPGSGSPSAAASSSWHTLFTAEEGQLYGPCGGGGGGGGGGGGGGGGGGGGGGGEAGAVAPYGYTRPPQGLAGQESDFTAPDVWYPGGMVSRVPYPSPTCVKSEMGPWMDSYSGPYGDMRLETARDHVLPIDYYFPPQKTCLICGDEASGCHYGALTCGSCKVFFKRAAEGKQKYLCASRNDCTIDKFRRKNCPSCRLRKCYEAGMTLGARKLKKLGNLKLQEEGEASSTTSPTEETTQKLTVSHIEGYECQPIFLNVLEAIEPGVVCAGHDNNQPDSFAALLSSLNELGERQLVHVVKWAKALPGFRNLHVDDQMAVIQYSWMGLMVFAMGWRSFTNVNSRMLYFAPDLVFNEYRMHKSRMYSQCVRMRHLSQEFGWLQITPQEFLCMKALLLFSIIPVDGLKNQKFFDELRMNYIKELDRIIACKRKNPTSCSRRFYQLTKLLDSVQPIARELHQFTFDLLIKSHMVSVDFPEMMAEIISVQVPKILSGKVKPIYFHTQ
Protocol: After 24 h, cells were transfected using Lipofectamine and Plus reagents (Invitrogen) according to manufacturer's instructions. LNCaP and ZR-75 cells were transfected with 500 ng/well of either reporter plasmid, and 250 ng/well of pcDNA3.1-β-gal (Invitrogen) as the internal control. In addition, ZR-75 cells were transfected with 500 ng hAR. Twenty-four hours after treatment, cells were harvested by scraping with 200 μL/well of reporter lysis buffer. Lysates were centrifuged at 40,000 g and luciferase and β-galactosidase activity was assayed with 30 μL of the supernatant extract per sample using a Lumicount luminometer (PerkinElmer, Boston, Mass.). Luciferase activity was normalized to β-galactosidase activity for each transfection well.

[2] = test system: ethoxyresorufin O-deethylase (EROD) activity in PC3 cells; assay: Induction of EROD activity in PC3 cells; assay type: cell-based; details: 24-96 hr
Protocol: An androgen responsive prostate cancer cell line 22Rv1 and an androgen nonresponsive prostate cancer cell line PC3 were treated with TCDD and ethoxyresorufin O-deethylase (EROD) activity was measured.

## Clc1cc2c(cc1Cl)Oc1cc(Cl)c(Cl)cc1O2 [TCDD, 2,3,7,8-tetrachloro-p-dioxin]
[1]
  effect on DHT-induced activity: not
  effect on E2-induced activity: inhibited
[2]; 1 nM
  EROD activity induction: did not induce activity
[2]; 10 nM, maximal after 96 hr
  EROD activity induction: induced a response
